The results in this text go back to PubChem BioAssay AID256 (DTP/NCI, 2004).

In the experiment the test system is CD2F1 mice, L1210 leukemia ip, survival T/C. The experiment is described as follows: NCI In Vivo Anticancer Drug Screen. Data for tumor model L1210 Leukemia (intraperitoneal) in CD2F1 (CDF1) mice. The settings on record: higher = longer survival. The method in brief: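 Activity against a transplanted murine tumor was judged by comparing the compound group with a vehicle group. The outcome in the treated animals was divided by that in the controls.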

Values joined by “and” are separate entries in the source; they are usually repeats but may differ in a detail not shown here. Identical values can stand only once. Inconclusive results and toxic doses are left out.

In the case of `CCCCNC(=O)C(C)S(=O)(=O)c1ccc(C)cc1` (centres undefined), the T/C was 103 % of control (endpoint: mean survival time, dose: 100.0 mg/kg/injection, schedule: Q01DX009 (ip), vehicle: saline with Tween-80); 97 % of control (endpoint: mean survival time, dose: 200.0 mg/kg/injection, schedule: Q01DX009 (ip), vehicle: saline with Tween-80); 95 % of control (endpoint: mean survival time, dose: 400.0 mg/kg/injection, schedule: Q01DX009 (ip), vehicle: saline with Tween-80).
As to `NC(Cc1c[nH]c2ccc(N(CCCl)CCCl)cc12)C(=O)O` (centres undefined), the T/C (endpoint: mean survival time, dose: 0.5 mg/kg/injection, schedule: Q01DX010 (ip), vehicle: saline) is 150 % of control; the T/C (endpoint: mean survival time, dose: 1.0 mg/kg/injection, schedule: Q01DX010 (ip), vehicle: saline) is 160 % of control; the T/C (endpoint: mean survival time, dose: 2.0 mg/kg/injection, schedule: Q01DX010 (ip), vehicle: saline) was 208 % of control.
As to `O=CC(NC(=O)N(CCCl)N=O)C(O)C(O)C(O)CO` (centres undefined), the T/C is, setting by setting: (endpoint: mean survival time, dose: 0.94 mg/kg/injection, schedule: Q01DX009 (ip), vehicle: citric acid) 117 % of control; (endpoint: mean survival time, dose: 1.88 mg/kg/injection, schedule: Q01DX009 (ip), vehicle: citric acid) 162 % of control; (endpoint: mean survival time, dose: 3.75 mg/kg/injection, schedule: Q01DX009 (ip), vehicle: citric acid) 182 % of control and 242 % of control; (endpoint: mean survival time, dose: 3.75 mg/kg/injection, schedule: Q01DX009 (ip), vehicle: saline) 186 % of control; (endpoint: mean survival time, dose: 3.8 mg/kg/injection, schedule: Q01DX009 (ip), vehicle: water) 406 % of control; (endpoint: mean survival time, dose: 5.0 mg/kg/injection, schedule: Q04DX002 (ip), vehicle: saline) 173 % of control and 250 % of control. The T/C by setting is: (endpoint: mean survival time, dose: 7.0 mg/kg/injection, schedule: Q01DX001 (ip), vehicle: saline) 115 % of control; (endpoint: mean survival time, dose: 7.5 mg/kg/injection, schedule: Q01DX009 (ip), vehicle: citric acid) 97 % of control; (endpoint: mean survival time, dose: 7.5 mg/kg/injection, schedule: Q01DX009 (ip), vehicle: saline) 223 % of control; (endpoint: mean survival time, dose: 7.5 mg/kg/injection, schedule: Q01DX009 (ip), vehicle: water) 154 % of control; (endpoint: mean survival time, dose: 8.0 mg/kg/injection, schedule: Q01DX001 (ip), vehicle: water) 267 % of control; (endpoint: mean survival time, dose: 10.0 mg/kg/injection, schedule: Q04DX002 (ip), vehicle: saline) 276 % of control and 289 % of control. Also, the T/C runs as follows: (endpoint: mean survival time, dose: 11.0 mg/kg/injection, schedule: Q01DX001 (ip), vehicle: saline) 151 % of control and 160 % of control; (endpoint: mean survival time, dose: 12.5 mg/kg/injection, schedule: Q01DX001 (ip), vehicle: saline) 158 % of control; (endpoint: mean survival time, dose: 15.0 mg/kg/injection, schedule: Q01DX009 (ip), vehicle: saline) 120 % of control; (endpoint: mean survival time, dose: 15.0 mg/kg/injection, schedule: Q01DX009 (ip), vehicle: water) 93 % of control; (endpoint: mean survival time, dose: 16.0 mg/kg/injection, schedule: Q01DX001 (ip), vehicle: saline) 336 % of control [middle of 4 runs]; (endpoint: mean survival time, dose: 16.0 mg/kg/injection, schedule: Q01DX001 (ip), vehicle: water) 369 % of control. The T/C (endpoint: mean survival time, dose: 20.0 mg/kg/injection, schedule: Q01DX001 (ip), vehicle: saline) was 688 % of control; the T/C (endpoint: mean survival time, dose: 20.0 mg/kg/injection, schedule: Q04DX002 (ip), vehicle: saline) was 331 % of control and 335 % of control; the T/C (endpoint: mean survival time, dose: 25.0 mg/kg/injection, schedule: Q01DX001 (ip), vehicle: saline) was 535 % of control; the T/C (endpoint: mean survival time, dose: 28.0 mg/kg/injection, schedule: Q01DX001 (ip), vehicle: saline) is 857 % of control; the T/C (endpoint: mean survival time, dose: 32.0 mg/kg/injection, schedule: Q01DX001 (ip), vehicle: water) was 372 % of control; the T/C (endpoint: mean survival time, dose: 36.0 mg/kg/injection, schedule: Q01DX001 (ip), vehicle: saline) was 603 % of control [middle of 4 runs]. Further, the T/C is 92 % of control and 101 % of control (endpoint: mean survival time, dose: 40.0 mg/kg/injection, schedule: Q04DX002 (ip), vehicle: saline); 202 % of control (endpoint: mean survival time, dose: 50.0 mg/kg/injection, schedule: Q01DX001 (ip), vehicle: saline); 300 % of control and 548 % of control (endpoint: mean survival time, dose: 54.0 mg/kg/injection, schedule: Q01DX001 (ip), vehicle: saline); 152 % of control (endpoint: median survival time, dose: 15.0 mg/kg/injection, schedule: Q01DX001 (ip), vehicle: saline); 181 % of control (endpoint: median survival time, dose: 25.0 mg/kg/injection, schedule: Q01DX001 (ip), vehicle: saline); 406 % of control (endpoint: median survival time, dose: 42.0 mg/kg/injection, schedule: Q01DX001 (ip), vehicle: saline).
With `NC(=O)c1[nH]nc(C2OC(CO)C(O)C2O)c1O` (centres undefined), the T/C runs as follows: (endpoint: mean survival time, dose: 0.25 mg/kg/injection, schedule: Q04DX003 (ip), vehicle: saline) 105 % of control; (endpoint: mean survival time, dose: 0.5 mg/kg/injection, schedule: Q04DX003 (ip), vehicle: saline) 97 % of control; (endpoint: mean survival time, dose: 1.0 mg/kg/injection, schedule: Q04DX003 (ip), vehicle: saline) 96 % of control; (endpoint: mean survival time, dose: 2.0 mg/kg/injection, schedule: Q04DX003 (ip), vehicle: saline) 97 % of control; (endpoint: median survival time, dose: 0.25 mg/kg/injection, schedule: Q01DX009 (ip), vehicle: saline) 98 % of control; (endpoint: median survival time, dose: 0.5 mg/kg/injection, schedule: Q01DX009 (ip), vehicle: saline) 111 % of control. Besides, the T/C is, setting by setting: (endpoint: median survival time, dose: 1.0 mg/kg/injection, schedule: Q01DX009 (ip), vehicle: saline) 121 % of control; (endpoint: median survival time, dose: 1.0 mg/kg/injection, schedule: Q04DX003 (ip), vehicle: saline) 102 % of control; (endpoint: median survival time, dose: 1.88 mg/kg/injection, schedule: Q04DX003 (ip), vehicle: saline) 117 % of control; (endpoint: median survival time, dose: 2.0 mg/kg/injection, schedule: Q01DX009 (ip), vehicle: saline) 120 % of control; (endpoint: median survival time, dose: 3.75 mg/kg/injection, schedule: Q04DX003 (ip), vehicle: saline) 110 % of control; (endpoint: median survival time, dose: 4.0 mg/kg/injection, schedule: Q01DX009 (ip), vehicle: saline) 110 % of control. Also, the T/C is 116 % of control (endpoint: median survival time, dose: 7.5 mg/kg/injection, schedule: Q04DX003 (ip), vehicle: saline); 88 % of control (endpoint: median survival time, dose: 8.0 mg/kg/injection, schedule: Q01DX009 (ip), vehicle: saline); 117 % of control and 120 % of control (endpoint: median survival time, dose: 8.0 mg/kg/injection, schedule: Q04DX003 (ip), vehicle: saline); 118 % of control (endpoint: median survival time, dose: 15.0 mg/kg/injection, schedule: Q04DX003 (ip), vehicle: saline); 101 % of control (endpoint: median survival time, dose: 16.0 mg/kg/injection, schedule: Q01DX009 (ip), vehicle: saline); 111 % of control (endpoint: median survival time, dose: 16.0 mg/kg/injection, schedule: Q04DX003 (ip), vehicle: saline). The T/C runs as follows: (endpoint: median survival time, dose: 30.0 mg/kg/injection, schedule: Q04DX003 (ip), vehicle: saline) 97 % of control; (endpoint: median survival time, dose: 32.0 mg/kg/injection, schedule: Q04DX003 (ip), vehicle: saline) 118 % of control.
As for `Cn1c(/C=C/C(=O)O)cc2ccccc21`, the T/C is 108 % of control (endpoint: mean survival time, dose: 75.0 mg/kg/injection, schedule: Q01DX001 (ip), vehicle: saline); 106 % of control (endpoint: mean survival time, dose: 150.0 mg/kg/injection, schedule: Q01DX001 (ip), vehicle: saline); 106 % of control (endpoint: mean survival time, dose: 300.0 mg/kg/injection, schedule: Q01DX001 (ip), vehicle: saline).
As for `Cc1ccc(C2=C(c3ccc(C)cc3)CS(=O)(=O)C2)cc1`, the T/C by setting is: (endpoint: mean survival time, dose: 100.0 mg/kg/injection, schedule: Q01DX001 (ip), vehicle: saline with Tween-80) 92 % of control; (endpoint: mean survival time, dose: 200.0 mg/kg/injection, schedule: Q01DX001 (ip), vehicle: saline with Tween-80) 93 % of control; (endpoint: mean survival time, dose: 400.0 mg/kg/injection, schedule: Q01DX001 (ip), vehicle: saline with Tween-80) 92 % of control; (endpoint: mean survival time, dose: 800.0 mg/kg/injection, schedule: Q01DX001 (ip), vehicle: saline with Tween-80) 92 % of control.
Regarding `CCCCNC(=O)NC(=O)CCl`, the T/C (endpoint: mean survival time, dose: 100.0 mg/kg/injection, schedule: Q04DX003 (ip), vehicle: saline) is 97 % of control; the T/C (endpoint: mean survival time, dose: 200.0 mg/kg/injection, schedule: Q04DX003 (ip), vehicle: saline) is 101 % of control; the T/C (endpoint: mean survival time, dose: 400.0 mg/kg/injection, schedule: Q04DX003 (ip), vehicle: saline) was 97 % of control.
Consider `O=[N+]([O-])c1ccccc1O`, for which the T/C (endpoint: mean survival time, dose: 100.0 mg/kg/injection, schedule: Q04DX003 (ip), vehicle: Klucel (hydroxypropylcellulose) (HPC)) was 97 % of control; the T/C (endpoint: mean survival time, dose: 200.0 mg/kg/injection, schedule: Q04DX003 (ip), vehicle: Klucel (hydroxypropylcellulose) (HPC)) is 97 % of control; the T/C (endpoint: mean survival time, dose: 400.0 mg/kg/injection, schedule: Q04DX003 (ip), vehicle: Klucel (hydroxypropylcellulose) (HPC)) is 96 % of control.
